Structures are written as SMILES. pIC50: −log10 of the molar value.

This assay relates to YAP-TEAD. Briefly: TEAD inhibition, Hippo Pathway TEAD Reporter MCF-7 luciferase assay. The class given is cell-based. As to conditions: Homo sapiens, MCF7, 24 h, Hippo Pathway TEAD Reporter MCF-7 cells, luciferase activity after 24 h; read-out: IC50 of the test compounds on YAP-TEAD inhibition (Group). Summed up:
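IC50 derived from ONE-Glo luciferase luminescence after 24 h compound exposure (11 concentrations in quadruplicate, 0.1% DMSO control). Reporter: MCF-7 line expressing firefly luciferase under TEAD elements, constitutively activated by nuclear YAP1.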
Take `CN1C(=O)CCC1C(=O)Nc1cc(OCc2ccc(F)c(F)c2)cc2c1OCC2` (centres unmarked) [Compound 248, N-(5-((3,4-Difluorobenzyl)oxy)-2,3-dihydrobenzofuran-7-yl)-1-methyl-5-oxopyrrolidine-2-carboxamide]: the pIC50 (in general, the IC50 on a negative log10 scale, so that one unit is a factor of ten) is greater than 7.30.
In the case of `CN1C(=O)CCC1C(=O)Nc1cc(COc2cccc(F)c2)cc2ccoc12` (centres unmarked) [Compound 249, N-(5-((3-Fluorophenoxy)methyl)benzofuran-7-yl)-1-methyl-5-oxopyrrolidine-2-carboxamide], the pIC50 was 6.52 to 7.30.
On to `COc1cc(Oc2ccc(F)c(F)c2)cc(NC(=O)C2CCC(=O)N2C)c1F` (centres unmarked) [Compound 251, N-(5-(3,4-difluorophenoxy)-2-fluoro-3-methoxyphenyl)-1-methyl-5-oxopyrro-lidine-2-carboxamide], for which the pIC50 is 5.70 to 6.52.
Consider `COc1ccc(Oc2ccc(C(F)(F)F)cc2)cc1NC(=O)C12CCC(=O)N1CCS2(=O)=O` (centres unmarked) [Compound 252, N-(2-Methoxy-5-(4-(trifluoromethyl)phenoxy)phenyl)-5-oxotetrahydropyrrolo[2,1-b]thiazole-7a(5H)-carboxamide 1,1-dioxide], for which the pIC50 was 5.70 to 6.52.
`COc1cc(NC(=O)C2CCC(=O)N2)cc(Oc2ccc(C(F)(F)F)cc2)c1` (centres unmarked) [Compound 253, N-(3-Methoxy-5-(4-(trifluoromethyl)phenoxy)phenyl)-5-oxopyrro-lidine-2-carboxamide]: the pIC50 is greater than 7.30.
For the compound `COc1ccc(/C=C/c2cccc(F)c2)cc1NC(=O)C1CCC(=O)N1C` (centres unmarked) [Compound 254, (E)-N-(5-(3-Fluorostyryl)-2-methoxyphenyl)-1-methyl-5-oxopyrrolidine-2-carboxamide], the pIC50 is 6.52 to 7.30.
For the compound `COc1ccc(OC2CCC(C(F)(F)F)CC2)cc1NC(=O)C1CCC(=O)N1C` (centres unmarked) [Compound 255, N-(2-Methoxy-5-((4-(trifluoromethyl)cyclohexyl)oxy)phenyl)-1-methyl-5-oxo-pyrrolidine-2-carboxamide], the negative-log IC50 (pIC50) was greater than 7.30.
Consider `COc1ccc(Cc2cccc(C(F)(F)F)c2)cc1NC(=O)C1CCC(=O)N1C` (centres unmarked) [Compound 256, N-(2-Methoxy-5-(3-(trifluoromethyl)benzyl)phenyl)-1-methyl-5-oxopyrrolidine-2-carboxamide], for which the pIC50 is 6.52 to 7.30.
In the case of `COc1ccc(Cc2ccc(C(F)(F)F)cc2)cc1NC(=O)C1CCC(=O)N1C` (centres unmarked) [Compound 257, N-(2-Methoxy-5-(4-(trifluoromethyl)benzyl)phenyl)-1-methyl-5-oxopyrrolidine-2-carboxamide], the pIC50 is 6.52 to 7.30.
With `CN1C(=O)CCC1C(=O)Nc1cc(Oc2ccc(C(F)(F)F)cc2)ccc1Cl` (centres unmarked) [Compound 258, N-(2-Chloro-5-(4-(trifluoromethyl)phenoxy)phenyl)-1-methyl-5-oxopyrrolidine-2-carboxamide] the figure was 6.52 to 7.30; with `COc1ccc(NC(=O)C2CCC(=O)N2C)cc1Oc1ccc(C(F)(F)F)cc1` (centres unmarked) [Compound 259, N-(4-Methoxy-3-(4-(trifluoromethyl)phenoxy)phenyl)-1-methyl-5-oxo-pyrrolidine-2-carboxamide], 6.52 to 7.30.
`COc1ccc(Oc2ccc(F)cc2)cc1NC(=O)C1CCC(=O)N1C` (centres unmarked) [Compound 260, N-(5-(4-Fluorophenoxy)-2-methoxyphenyl)-1-methyl-5-oxopyrrolidine-2-carboxamide]: the pIC50 was 6.52 to 7.30.
With `COc1cc(NC(=O)C2CCC(=O)N2)cc(Oc2cccc(C(F)(F)F)c2)c1` (centres unmarked) [Compound 261, N-(3-Methoxy-5-(3-(trifluoromethyl)phenoxy)phenyl)-5-oxopyrrolidine-2-carboxamide] the figure was 6.52 to 7.30; with `COc1ccc(Oc2cnc(F)c(C)c2)cc1NC(=O)C1CCC(=O)N1` (centres unmarked) [Compound 262, N-(5-((6-Fluoro-5-methylpyridin-3-yl)oxy)-2-methoxyphenyl)-5-oxopyrrolidine-2-carboxamide], 5.70 to 6.52.
Consider `COc1ccc(Oc2cnc(F)c(C)c2)cc1NC(=O)[C@H]1CCC(=O)N1C` [Compound 263, (R)—N-(5-((6-fluoro-5-methylpyridin-3-yl)oxy)-2-methoxyphenyl)-1-methyl-5-oxopyrrolidine-2-carboxamide], for which the pIC50 is 6.52 to 7.30.
For the compound `COc1cc(NC(=O)C2CCC(=O)N2C)cc(OC2CCC(C(F)(F)F)CC2)c1` (centres unmarked) [Compound 264], the pIC50 is greater than 7.30.
Take `COc1ccc(OC2CCC(C(F)(F)F)CC2)cc1NC(=O)[C@H]1CCC(=O)N1C` (stereo partly drawn) [Compound 265, (R)—N-(2-Methoxy-5-((4-(trifluoromethyl)cyclohexyl)oxy)phenyl)-1-methyl-5-oxopyrrolidine-2-carboxamide]: the pIC50 was greater than 7.30.
Turning to `COc1ccc(O[C@@H]2CCC[C@H](C(F)(F)F)C2)cc1NC(=O)C1CCC(=O)N1` (stereo partly drawn) [Compound 266, N-(2-Methoxy-5-(((1R,3S)-3-(trifluoromethyl)cyclohexyl)oxy)phenyl)-5-oxo-pyrrolidine-2-carboxamide], the pIC50 was 6.52 to 7.30.
The result for `COc1ccc(O[C@H]2CCC[C@H](C(F)(F)F)C2)cc1NC(=O)C1CCC(=O)N1` (stereo partly drawn) [Compound 267, N-(2-Methoxy-5-(((1S,3S)-3-(trifluoromethyl)cyclohexyl)oxy)phenyl)-5-oxo-pyrrolidine-2-carboxamide] reads 6.52 to 7.30.
Regarding `COc1ccc(O[C@@H]2CCC[C@H](C(F)(F)F)C2)cc1NC(=O)[C@H]1CCC(=O)N1C` [Compound 268, (R)—N-(2-Methoxy-5-(((1R,3S)-3-(trifluoromethyl)cyclohexyl)oxy)phenyl)-1-methyl-5-oxopyrrolidine-2-carboxamide], the pIC50 was 6.52 to 7.30.
For the compound `COc1ccc(O[C@H]2CCC[C@H](C(F)(F)F)C2)cc1NC(=O)[C@H]1CCC(=O)N1C` [Compound 269, (R)—N-(2-Methoxy-5-(((1S,3S)-3-(trifluoromethyl)cyclohexyl)oxy)phenyl)-1-methyl-5-oxopyrrolidine-2-carboxamide], the pIC50 was 6.52 to 7.30.
The result for `CN1C(=O)CCC1C(=O)Nc1cc(OC2CCC(C(F)(F)F)CC2)ccc1F` (centres unmarked) [Compound 270, N-(2-Fluoro-5-((4-(trifluoromethyl)cyclohexyl)oxy)phenyl)-1-methyl-5-oxo-pyrrolidine-2-carboxamide] reads 6.52 to 7.30.
In the case of `COc1ccc(NC(=O)C2CCC(=O)N2C)cc1O[C@H]1CC[C@H](C(F)(F)F)CC1` (stereo partly drawn) [Compound 271, (R)—N-(4-methoxy-3-(((1r,4R)-4-(trifluoromethyl)cyclohexyl)oxy)phenyl)-1-methyl-5-oxopyrrolidine-2-carboxamide], the pIC50 was 6.52 to 7.30.
`COc1ccc(NC(=O)[C@@H]2CCC(=O)N2C)cc1O[C@H]1CC[C@@H](C(F)(F)F)CC1` [Compound 272, (R)—N-(4-Methoxy-3-(((1s,4S)-4-(trifluoromethyl)cyclohexyl)oxy)phenyl)-1-methyl-5-oxopyrrolidine-2-carboxamide]: the pIC50 is 5.70 to 6.52.
As for `COc1cc(NC(=O)C2CCC(=O)N2C)cc(Oc2cccc(C(F)(F)F)c2)c1` (centres unmarked) [Compound 273, N-(3-Methoxy-5-(3-(trifluoromethyl)phenoxy)phenyl)-1-methyl-5-oxo-pyrrolidine-2-carboxamide], the pIC50 was 6.52 to 7.30.
As for `COc1cc(NC(=O)C2CCC(=O)N2C)cc(Oc2ccc(Cl)c(C(F)(F)F)c2)c1` (centres unmarked) [Compound 274, N-(3-(4-Chloro-3-(trifluoromethyl)phenoxy)-5-methoxyphenyl)-1-methyl-5-oxopyrrolidine-2-carboxamide], the negative-log IC50 (pIC50) was 6.52 to 7.30.
